Experimental data published in publication PMC7869897, “Structure–functional relationship of cellular retinoic acid-binding proteins I and II interacting with natural and synthetic ligands” (Acta Crystallographica. Section D, Structural Biology, 2021).

Experiments:
Type in all cases: binding
[1] = molecular target: T1, CRABPII (Homo sapiens, UniProt P29373); experiment: solvatochromic fluorescence probe, with and without CRABPII; displaced by DC645
T1 construct: gene CRABP2; GST-tagged, tag cleaved with thrombin
T1 sequence (P29373 1-138): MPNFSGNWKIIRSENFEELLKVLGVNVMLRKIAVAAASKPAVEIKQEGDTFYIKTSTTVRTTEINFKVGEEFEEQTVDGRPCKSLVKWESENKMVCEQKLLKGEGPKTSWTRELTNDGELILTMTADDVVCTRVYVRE

[2] = molecular target: T2, CRABPI (Homo sapiens, UniProt P29762, L29C); experiment: fluorescent probe displaced by DC645
T2 construct: gene CRABP1; His-tagged, tag cleaved with thrombin
T2 sequence (P29762 whole entry L29C): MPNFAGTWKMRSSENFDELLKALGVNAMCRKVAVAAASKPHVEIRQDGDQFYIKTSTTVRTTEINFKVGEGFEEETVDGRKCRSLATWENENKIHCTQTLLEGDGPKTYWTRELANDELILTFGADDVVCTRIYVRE

[3] = molecular target: T1, CRABPII; experiment: co-crystal structure ([…] Å)
[4] = molecular target: T2, CRABPI; experiment: co-crystal structure ([…] Å) and competitive fluorescence displacement of DC271
[5] = molecular target: T1, CRABPII; experiment: as above
[6] = molecular target: T2, CRABPI; experiment: crystal structure ([…] Å); co-purified fatty acid density modelled as myristic acid

For `CC(C)N1CCC(C)(C)c2cc(C#Cc3ccc(C(=O)O)cc3)ccc21` [DC271], the “solvatochromic fluorescence probe, with and without CRABPII; displaced by DC645” value [1] was “DC271 presents a stark solvatochromic effect when in the presence of CRABPII owing to inclusion into the binding site” and the “fluorescent probe displaced by DC645” value [2] was “Competitive displacement of DC271 from CRABPI-L29C by DC645 was carried out”.

`CC(C)N1CCC(C)(C)c2ccc(-c3ccc(/C=C/C(=O)O)cc3)cc21` [DC479] was tested, and the “co-crystal structure (1.80 Å)” value [3] was “DC479 occupies the binding site fully, with its carboxylic acid head buried adjacent to the canonical binding triad”.

`CC1(C)CCC(C)(C)c2nc(C#Cc3ccc(C(=O)O)cc3)cnc21` [DC645] was tested, and the Kd [4] was 1.94 ± 0.11 µM and the Kd [5] was 0.25 ± 0.06 µM.

For `CCCCCCCCCCCCCC(=O)O` [MYR, myristic acid], the “crystal structure (1.64 Å); co-purified fatty acid density modelled as myristic” value [6] was “a conserved water molecule hydrogen-bonded to the associated ligand modelled as the 14-carbon myristic acid”.
